According to paper PMC8443589, “Modelling human liver fibrosis in the context of non-alcoholic steatohepatitis using a microphysiological system” (Communications Biology, 2021):

What was measured:
[1] = Non-specific compound binding: drug recovery in blank liver MPS plates (no cells), LC-MS; format: in vitro ADME; details: blank liver MPS platform/plates, vs input media, read-out: Drug recovery incubation in blank MPS platform (no cells)
[2] = tested on: liver MPS NASH model (PHH, KC and HSC co-cultures, high fat); assay: Secreted cytokine/biomarker profile (Luminex, ELISA) of liver MPS NASH model dosed with OCA or ELF; format: cell-based, human
Procedure: Fig. 3 Obeticholic acid and Elafibranor both modulate inflammatory and fibrosis phenotype in liver MPS NASH model and phenotype can additionally be reversed with dietary changes. PHH, KC and HSC co-cultures were cultured in the MPS platform under high fat conditions and dosed with varying concentrations of Obeticholic acid (OCA) and Elafibranor (ELF) QD or vehicle control (control) for 10 days, following an initial 4-day pre-culture phase. a The secreted cytokine profile from liver microtissues was compared by Luminex to determine the effects of each compound on the inflammatory profile of the liver with samples analysed at day 8 and 14 of the culture. Data were normalised by Z-transformation to allow comparison of all analytes and presented as a heatmap. b The expression of fibrosis-associated genes was analysed in total RNA from control, OCA and ELF treated liver microtissues (highest concentration for each compound) using Human Fibrosis RT2 Profiler PCR Arrays. Gene expression changes are expressed as a fold change over control. c Liver microtissues were stained for collagen-type I, α-SMA, nuclei (DAPI - blue), phalloidin (green) and imaged by confocal microscopy. Representative images are shown and scale bars 200 µm. d Staining of microtissue was quantified by measuring total fluorescence intensity throughout individual microtissues, each data point represents an average of all the microtissues imaged within an MPS scaffold (min 8, max 20 microtissues). e PHH, KC and HSC co-cultures were cultured in the MPS platform under high fat or lean conditions for 30 days. Cultures either remained in the same type of media throughout or were switched at day 15 from fat media to lean media (Fat -> Lean). Cell culture medium samples were analysed for the presence of IL-6, f MCP-1, g TIMP-1, which were measured by ELISA. h Microtissues were stained with Oil-Red O to determine fat loading during culture period, total stain was quantified by absorbance at 510 nm. All datapoints shown, either as box-whisker plots highlighting mean and min-max or with error bars highlighting means ± SD. All data from a minimum of three independent cultures; statistical comparisons made to control samples unless other comparison shown.
Soluble biomarkers in cell culture medium from the MPS were analysed by enzyme-linked immunosorbent assay (ELISA); IL-6 was measured by Human IL-6 DuoSet ELISA (R&D Systems); MCP-1 was measured by Human CCL2/MCP-1 DuoSet ELISA (R&D Systems); pro-collagen 1 was measured by Human Pro-Collagen I α1 DuoSet (R&D Systems); TIMP-1 was measured by Human TIMP-1 Quantikine ELISA Kit (R&D Systems); Fibronectin was measured by Human Fibronectin DuoSet ELISA (R&D Systems); YKL-40 was measured by Human Chitinase 3-like 1 Quantikine ELISA Kit (R&D Systems); Albumin secretion was measured by Human Albumin AssayMax™ ELISA kit (Assay Pro, St. Charles, MO). For all assays, the manufacturer’s protocol was followed.
Cytokine profiles in cell culture medium samples were also analysed by Luminex array for determination of 38 analytes in total, consisting of cytokines, chemokines, and growth factors using the MILLIPLEX MAP Human Cytokine/Chemokine Magnetic Bead Panel - Premixed 38 Plex (Merck Millipore, USA).
Liver microtissues were cultured for 4 days in HEP-FAT medium, before dosing with obeticholic acid or elafibranor. Both compounds were dissolved in DMSO, diluted in cell culture medium (final DMSO concentration ≤1%) and added to microtissues during a full medium change every two days and in addition on the intervening days compounds were spiked into the media to increase drug concentration back to desired concentrations. Cultures were maintained in the presence of the compound, for a total of 10 days in the presence or absence of TGFβ.

[3] = clinical dose, cited from earlier work

## CC[C@H]1[C@@H](O)[C@@H]2[C@H](CC[C@]3(C)[C@@H]([C@H](C)CCC(=O)O)CC[C@@H]23)[C@@]2(C)CC[C@@H](O)C[C@@H]12 [Obeticholic acid]
[1]
  recovery at 1 µM: 110%
[2]; 10 days of compound treatment
  inflammatory cytokines, including CXCL1, IL1-Rα, IL-6 and MCP-1: concentration-dependent decrease
[2]; OCA 0.25 µM QD, D8
  CXCL1 fold change in production compared to control: 1.039
  CXCL10 fold change in production compared to control: 1.592
  FN1 fold change in production compared to control: 1.009
  IL-1RA fold change in production compared to control: 0.6936
  IL-4 fold change in production compared to control: 1.307
  IL-6 fold change in production compared to control: 0.4788
  IL-8 fold change in production compared to control: 1.109
  MCP-1 fold change in production compared to control: 1.237
  MIP-1a fold change in production compared to control: 1.006
  MIP-1b fold change in production compared to control: 1.009
  TIMP-1 fold change in production compared to control: 0.957
  VEGF fold change in production compared to control: 0.3694
[2]; OCA 0.25 µM QD, D14
  CXCL1 fold change in production compared to control: 0.7512
  CXCL10 fold change in production compared to control: 1.289
  FN1 fold change in production compared to control: 1.087
  IL-1RA fold change in production compared to control: 0.3915
  IL-4 fold change in production compared to control: 1.067
  IL-6 fold change in production compared to control: 0.3892
  IL-8 fold change in production compared to control: 0.7621
  MCP-1 fold change in production compared to control: 1.11
  MIP-1a fold change in production compared to control: 1.483
  MIP-1b fold change in production compared to control: 1.406
  TIMP-1 fold change in production compared to control: 0.7667
  VEGF fold change in production compared to control: 0.2436
[2]; OCA 5 µM QD, D8
  CXCL1 fold change in production compared to control: 0.9903
  CXCL10 fold change in production compared to control: 1.252
  FN1 fold change in production compared to control: 0.9708
  IL-1RA fold change in production compared to control: 0.2279
  IL-4 fold change in production compared to control: 1.215
  IL-6 fold change in production compared to control: 0.3708
  IL-8 fold change in production compared to control: 1.325
  MCP-1 fold change in production compared to control: 0.9348
  MIP-1a fold change in production compared to control: 0.7425
  MIP-1b fold change in production compared to control: 0.6949
  TIMP-1 fold change in production compared to control: 0.8577
  VEGF fold change in production compared to control: 0.4201
[2]; OCA 5 µM QD, D14
  CXCL1 fold change in production compared to control: 0.8937
  CXCL10 fold change in production compared to control: 1.722
  FN1 fold change in production compared to control: 1.05
  IL-1RA fold change in production compared to control: 0.2225
  IL-4 fold change in production compared to control: 1.3182
  IL-6 fold change in production compared to control: 0.3278
  IL-8 fold change in production compared to control: 2.0708
  MCP-1 fold change in production compared to control: 0.6363
  MIP-1a fold change in production compared to control: 0.8372
  MIP-1b fold change in production compared to control: 0.7752
  TIMP-1 fold change in production compared to control: 0.8205
  VEGF fold change in production compared to control: 0.5877
[2]; OCA 12.5 µM QD, D8
  CXCL1 fold change in production compared to control: 0.5392
  CXCL10 fold change in production compared to control: 1.011
  FN1 fold change in production compared to control: 0.8305
  IL-1RA fold change in production compared to control: 0.1467
  IL-4 fold change in production compared to control: 0.6477
  IL-6 fold change in production compared to control: 0.3353
  IL-8 fold change in production compared to control: 0.6609
  MCP-1 fold change in production compared to control: 0.4398
  MIP-1a fold change in production compared to control: 1.1281
  MIP-1b fold change in production compared to control: 0.9989
  TIMP-1 fold change in production compared to control: 1.076
  VEGF fold change in production compared to control: 0.449
[2]; OCA 12.5 µM QD, D14
  CXCL1 fold change in production compared to control: 0.5648
  CXCL10 fold change in production compared to control: 0.9485
  FN1 fold change in production compared to control: 0.8335
  IL-1RA fold change in production compared to control: 0.07151
  IL-4 fold change in production compared to control: 0.8808
  IL-6 fold change in production compared to control: 0.05395
  IL-8 fold change in production compared to control: 1.84
  MCP-1 fold change in production compared to control: 0.2656
  MIP-1a fold change in production compared to control: 0.8417
  MIP-1b fold change in production compared to control: 0.7263
  TIMP-1 fold change in production compared to control: 0.9472
  VEGF fold change in production compared to control: 0.5676
[3]
  liver Cmax: 12.5 µM
[3]; read-out: Plasma Cmax
  Cmax: 500 nM
